Test results from patent US20240415781A1, “PYROPTOSIS-TRIGGERING LIPID NANOPARTICLE” (NEW JERSEY INSTITUTE OF TECHNOLOGY, priority 2023, published 2024).

Experiment: Ionizable cationic lipid library screen, in vitro delivery of luciferase mRNA (mLuc)
Assay type: cell-based
Details: 18*8 library, LNPs with DOPE, cholesterol, DMG-PEG
Description: In some embodiments, an ionizable cationic lipid is generally composed of three parts: (1) one or more hydrophilic headgroups containing one or multiple ionizable amines for condensing negatively charged mRNA; (2) one or more hydrophobic hydrocarbon chains capable of promoting self-assembly and phospholipid membrane fusion; and (3) one or more degradable ester linkers connecting the headgroups with the hydrocarbon chains to potentially lower systemic cytotoxicity, as shown in FIG. 9B. In some embodiments, a new library of ionizable cationic lipids is provided, with ionizable amine headgroups derived from different amino alcohols and hydrocarbon lipid chains derived from commercially available lipid acids. In some embodiments, using CALB enzyme-assisted reaction, the hydroxyl groups were reacted with carboxylic acids via one-step high-efficiency esterification, as shown in FIG. 9A. An 18*8 library of lipid-like materials was synthesized by varying amino alcohols and lipid acids. These lipid-like materials with DOPE, cholesterol, and DMG-PEG were fabricated at a molar ratio of 50:10:38.5:1.5, which was a widely used formulation to form LNPs and delivered luciferase encoded mRNA (mLuc) in vitro to generate a luciferase expression heat map of lipid-like materials. […]

rank in luciferase expression screen of lipid-like materials: top-performing
SMILES: CCCCC/C=C\C/C=C\CCCCCCCC(=O)OCCN1CCN(CCOC(=O)CCCCCCC/C=C\C/C=C\CCCCC)CC1 [AA3-DLin]
